Values quoted from earlier work in patent US9406119B2, “Estimating pharmacokinetic parameters in imaging” (INVICRO, LLC, priority 2010, dated 2016).

Key:
αvβ3 [1] = molecular target: T1, αvβ3 (Homo sapiens, UniProt P05106+P06756); settings: parameter obtained from the literature
αvβ3 [2] = molecular target: T1, αvβ3; settings: parameter obtained from the literature; remark: listed apart in the source
[3] = in vivo

T1 sequence (P06756 31-889 limits assumed): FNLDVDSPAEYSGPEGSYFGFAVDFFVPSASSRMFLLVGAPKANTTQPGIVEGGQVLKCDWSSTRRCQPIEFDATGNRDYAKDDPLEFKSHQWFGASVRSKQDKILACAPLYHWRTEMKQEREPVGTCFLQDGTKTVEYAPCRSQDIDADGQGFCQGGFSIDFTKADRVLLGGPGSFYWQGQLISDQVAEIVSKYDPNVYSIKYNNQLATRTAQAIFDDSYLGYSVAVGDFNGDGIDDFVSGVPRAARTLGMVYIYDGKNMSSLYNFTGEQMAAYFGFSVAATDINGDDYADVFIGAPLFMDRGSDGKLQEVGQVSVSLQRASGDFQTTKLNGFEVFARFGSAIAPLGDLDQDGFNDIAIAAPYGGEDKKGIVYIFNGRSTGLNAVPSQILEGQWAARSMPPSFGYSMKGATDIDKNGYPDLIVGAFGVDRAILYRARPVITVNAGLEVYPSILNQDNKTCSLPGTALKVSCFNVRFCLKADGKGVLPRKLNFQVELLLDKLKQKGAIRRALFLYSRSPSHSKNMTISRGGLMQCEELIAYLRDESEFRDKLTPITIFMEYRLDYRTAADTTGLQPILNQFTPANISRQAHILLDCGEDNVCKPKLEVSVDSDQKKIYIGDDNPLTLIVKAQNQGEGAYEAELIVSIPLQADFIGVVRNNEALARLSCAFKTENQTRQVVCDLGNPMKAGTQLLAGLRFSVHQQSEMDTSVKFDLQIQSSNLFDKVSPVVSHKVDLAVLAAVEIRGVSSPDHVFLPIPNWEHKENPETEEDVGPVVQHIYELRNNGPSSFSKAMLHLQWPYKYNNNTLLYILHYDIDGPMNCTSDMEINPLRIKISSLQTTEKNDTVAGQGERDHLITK
T1 sequence (P06756 891-1048 partner limits assumed): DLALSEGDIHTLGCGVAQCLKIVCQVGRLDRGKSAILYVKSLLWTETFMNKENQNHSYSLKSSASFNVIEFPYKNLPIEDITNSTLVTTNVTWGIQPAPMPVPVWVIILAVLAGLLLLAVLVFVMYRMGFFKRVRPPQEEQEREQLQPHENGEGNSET
T1 sequence (P05106 27-788): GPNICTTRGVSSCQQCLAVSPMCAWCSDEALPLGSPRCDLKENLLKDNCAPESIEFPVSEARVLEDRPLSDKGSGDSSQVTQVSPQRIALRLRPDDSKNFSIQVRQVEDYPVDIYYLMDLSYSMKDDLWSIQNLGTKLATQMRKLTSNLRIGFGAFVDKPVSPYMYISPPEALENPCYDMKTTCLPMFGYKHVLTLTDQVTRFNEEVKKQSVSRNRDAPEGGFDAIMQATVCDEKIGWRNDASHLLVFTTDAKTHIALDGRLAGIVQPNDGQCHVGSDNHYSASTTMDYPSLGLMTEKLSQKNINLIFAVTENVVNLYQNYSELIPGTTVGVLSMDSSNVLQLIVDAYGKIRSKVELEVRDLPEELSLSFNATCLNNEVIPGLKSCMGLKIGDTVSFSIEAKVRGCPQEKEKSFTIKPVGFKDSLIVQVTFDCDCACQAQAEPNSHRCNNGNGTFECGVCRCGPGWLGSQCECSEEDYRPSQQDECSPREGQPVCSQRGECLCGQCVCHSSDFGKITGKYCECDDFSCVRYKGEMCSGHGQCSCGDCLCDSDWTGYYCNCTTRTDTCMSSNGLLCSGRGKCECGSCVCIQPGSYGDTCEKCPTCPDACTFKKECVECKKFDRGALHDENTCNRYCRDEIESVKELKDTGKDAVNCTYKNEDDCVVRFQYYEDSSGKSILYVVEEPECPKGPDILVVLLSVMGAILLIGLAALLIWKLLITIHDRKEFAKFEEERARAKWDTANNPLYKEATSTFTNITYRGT

koff (CA/antigen dissociation rate constant) (αvβ3 [1]): 0.0008 s⁻¹
kon (CA/antigen association rate constant) (αvβ3 [1]): 10^5 M^−1s^−1
Kd (αvβ3 [1]; read-out: KD=koff/kon): 8 nM
ke,B (internalization rate constant of the CA/antigen bound complex) (αvβ3 [2]): 1.48e-05 s⁻¹
kresid (rate of release of CA or CA signal from the intracellular compartment) (αvβ3 [2]): 1.6e-05 s⁻¹
A (fraction of fast phase of plasma clearance) [3]: 0.82
B (fraction of slow phase of plasma clearance) [3]: 0.18
α (fast plasma clearance rate constant) [3]: 0.0026 s⁻¹
β (slow plasma clearance rate constant) [3]: 0.00014 s⁻¹
Substance: ^18F-galacto-RGD [^18F-galacto RGD]
